The values below come from patent US20040166508A1, “Analytical platform and detection method with the analytes to be determined in a sample as immobilized specific binding partners, optionally after fractionation of said sample” (priority 2002, published 2004).

The test deals with pErk2 (Phospho-p44/42 MAP kinase (Thr202/Tyr204)). As to the kind of experiment: Detection of pErk2 (phospho-p44/42 MAP kinase) in immobilized Jurkat cell lysates (antibody A3). It is filed as cell-based, human. The note with it: Jurkat cells treated with 10 μM for 180 min. The method, then: Human T-cell cultures (Jurkat, DMZ # ACC282) are utilized for the detection of biologically relevant protein analytes in “immobilization samples”. These cells are cultivated at 37° C. in a solution containing RPMI 1640, 10% FCS (fetal calf serum), 2 mM glutamine, 50 U/ml penicillin, 50 μg/ml streptamycine (cell density at about 0.5×10^6-1.0×10^6 cells/ml). […] A cell culture, which is similar to the one described above but not treated with antibodies, is used as a comparison sample and shall serve as a negative control in the analytical detection method. […] The cells here are simply separated from the medium, without damage to the cells. The supernatant is then decanted, and lysis buffer (7 M urea, 2 M thiourea, 4% CHAPS, 1% DTT, 4 mM spermidine and Complete (protease inhibitor, Roche AG, 1 tablet/50 ml) is added, the total protein concentration being adjusted to about 10 mg/ml. Thereby, all protein-containing cell components are denatured spontaneously and completely and solubilized. The samples obtained by the preparation steps described above are again diluted by a factor of 10 to a total protein concentration of about 1 mg/ml, and are then deposited in discrete measurement areas for generating an array of measurement areas on the evanescent field sensor platform provided with the adhesion-promoting layer. […]

`CN[C@@H]1C[C@H]2O[C@@](C)([C@@H]1OC)n1c3ccccc3c3c4c(c5c6ccccc6n2c5c31)C(=O)NC4` [staurosporin, staurosporine]: the “pErk2 signal of the nonstimulated control sample compared with the treated sample” value is reported as “only slightly higher”.
